Measurements from paper PMC7075946 (Frontiers in Immunology, 2020).

Legend:
human TLR8 = biological target: T1, human TLR8 (Homo sapiens, UniProt Q9NR97); assay: cell-based
T1 sequence (Q9NR97 27-1041): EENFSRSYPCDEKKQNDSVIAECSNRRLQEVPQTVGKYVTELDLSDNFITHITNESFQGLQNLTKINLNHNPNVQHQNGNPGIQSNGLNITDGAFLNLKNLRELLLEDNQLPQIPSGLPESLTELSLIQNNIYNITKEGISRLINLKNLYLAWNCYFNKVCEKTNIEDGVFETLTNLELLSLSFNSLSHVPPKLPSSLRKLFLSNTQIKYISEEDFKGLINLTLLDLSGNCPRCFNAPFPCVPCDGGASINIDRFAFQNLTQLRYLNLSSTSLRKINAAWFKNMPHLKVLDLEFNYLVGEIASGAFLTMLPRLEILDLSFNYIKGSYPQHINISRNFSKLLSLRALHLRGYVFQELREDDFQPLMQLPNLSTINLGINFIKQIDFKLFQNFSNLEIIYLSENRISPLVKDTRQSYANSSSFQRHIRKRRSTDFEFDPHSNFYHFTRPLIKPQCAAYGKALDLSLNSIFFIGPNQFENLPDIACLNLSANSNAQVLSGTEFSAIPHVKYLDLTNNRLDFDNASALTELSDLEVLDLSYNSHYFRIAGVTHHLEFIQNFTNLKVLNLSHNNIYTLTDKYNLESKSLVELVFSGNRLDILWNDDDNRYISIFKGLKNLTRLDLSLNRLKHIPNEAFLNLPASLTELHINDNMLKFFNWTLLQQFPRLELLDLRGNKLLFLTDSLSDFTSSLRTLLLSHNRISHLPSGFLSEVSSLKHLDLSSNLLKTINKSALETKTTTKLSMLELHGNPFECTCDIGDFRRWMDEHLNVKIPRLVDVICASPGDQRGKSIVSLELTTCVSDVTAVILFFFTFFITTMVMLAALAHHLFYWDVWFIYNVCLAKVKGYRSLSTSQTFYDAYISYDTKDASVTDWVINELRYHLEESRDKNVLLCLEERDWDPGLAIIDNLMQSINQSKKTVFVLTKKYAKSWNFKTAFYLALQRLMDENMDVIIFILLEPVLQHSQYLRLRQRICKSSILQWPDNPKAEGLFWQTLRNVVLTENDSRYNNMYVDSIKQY

mouse TLR7 = biological target: T2, mouse TLR7 (Mus musculus, UniProt P58681); assay: cell-based
T2 sequence (P58681 27-1050): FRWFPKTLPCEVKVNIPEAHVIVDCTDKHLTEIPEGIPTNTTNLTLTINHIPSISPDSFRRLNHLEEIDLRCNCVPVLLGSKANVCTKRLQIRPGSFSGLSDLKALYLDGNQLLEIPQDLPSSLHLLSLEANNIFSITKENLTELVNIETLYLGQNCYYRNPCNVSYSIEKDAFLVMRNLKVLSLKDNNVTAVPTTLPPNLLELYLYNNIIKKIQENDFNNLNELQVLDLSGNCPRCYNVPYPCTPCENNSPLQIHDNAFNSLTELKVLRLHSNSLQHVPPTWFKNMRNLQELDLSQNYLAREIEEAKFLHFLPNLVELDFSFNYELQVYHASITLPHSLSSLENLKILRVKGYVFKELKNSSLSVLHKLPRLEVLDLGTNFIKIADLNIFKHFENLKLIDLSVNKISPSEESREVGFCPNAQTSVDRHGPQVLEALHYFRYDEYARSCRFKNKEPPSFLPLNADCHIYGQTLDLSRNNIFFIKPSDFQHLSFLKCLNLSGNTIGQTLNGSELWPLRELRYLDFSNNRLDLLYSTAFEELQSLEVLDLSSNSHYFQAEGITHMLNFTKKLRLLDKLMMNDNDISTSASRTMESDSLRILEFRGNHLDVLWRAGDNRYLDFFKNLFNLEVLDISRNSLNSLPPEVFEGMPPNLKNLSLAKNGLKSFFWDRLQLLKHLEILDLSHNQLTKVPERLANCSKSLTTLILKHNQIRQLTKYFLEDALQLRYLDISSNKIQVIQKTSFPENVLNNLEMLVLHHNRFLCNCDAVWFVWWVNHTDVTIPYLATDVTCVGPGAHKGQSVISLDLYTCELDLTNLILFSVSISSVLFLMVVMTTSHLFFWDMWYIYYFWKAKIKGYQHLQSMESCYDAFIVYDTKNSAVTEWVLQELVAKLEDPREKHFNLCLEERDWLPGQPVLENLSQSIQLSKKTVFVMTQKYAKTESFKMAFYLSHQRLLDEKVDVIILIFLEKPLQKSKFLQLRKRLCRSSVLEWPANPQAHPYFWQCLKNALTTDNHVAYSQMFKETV

human PBMCs = assay: Human PBMC intracellular cytokine staining (flow cytometry); assay type: cell-based; conditions: for frequency of mDC producing IL-12p40 / frequency of classical monocytes producing IL-12p40: 1 h plus 5 h GolgiPlug
Experimental: Human blood was obtained from healthy adult donors through a University of Montana Institutional Review Board (IRB)-approved protocol. PBMCs were separated from whole blood via density gradient separation using Histopaque 1,077 (Sigma). For PBMC-based assays, cells were resuspended at the desired cell concentration in complete media (RPMI1640+10% FBS+antibiotics). Cells were treated with the indicated compound concentrations and stimulated for 6–24 h depending on the assay as indicated in the figure legends and assays outlined below.
For flow cytometry analysis of innate cytokines, PBMCs were stimulated with indicated concentration of compound for 1 h followed by 5 h incubation with GolgiPlug (BD, 1 μL/mL) at 37°C. Post-stimulation, cells were harvested and surface stained with viability dye, and monoclonal antibodies targeting CD3 AF700 (Tonbo Bioscience, UCHT1), CD19 AF700 (Tonbo Bioscience, HIB19), CD56 AF700 (Biolegend, 5.1H11), HLA-DR BV785 (Biolegend, L243), CD14 APC-Cy7 (Biolegend, 63D3), CD16 PE-Dazzle594 (Biolegend, 3G8), CD11c BV421 (Biolegend, 3.9), and CD123 APC (Biolegend, 6H6). Following fixation and permeabilization with BD Cytofix/Cytoperm buffers, cells were stained with monoclonal antibodies targeting the intracellular cytokines IL-12p40 PE (a shared IL-12 and IL-23 subunit, Biolegend, C11.5), IL-6 FITC (Biolegend MQ2-13A5), IL-4 BV605 (Biolegend, MP4-25D2), and LAP (TGF-β) PE Cy7 [latency-associated peptide ([55]), Biolegend TW4-2F8]. Data were collected using an LSRII flow cytometer (BD) and analyzed using FlowJo 10.0 software (TreeStar).
Figure 7 Lipidated imidazoquinolines elicit T cell polarizing cytokines primarily from APCs. PBMCs from 6 healthy, adult blood donors were stimulated with 2 μM indicated TLR7/8, TLR4, or combination TLR4 + TLR7/8 agonists. After 1 h, brefeldin A (GolgiPlug) was added and cells were incubated for a further 5 h. Cells were then harvested and stained with surface antibodies for phenotyping, fixed and permeablized and stained with antibodies to detect intracellular cytokines. (A) Frequency of IL-12/IL-23+ cells, (B) frequency of IL-6+ cells, (C) frequency of TGFβ (LAP)+ cells, and (D) frequency of IL-4+ cells.

Row | SMILES | EC50 (human TLR8) [nM] | EC50 (mouse TLR7) [nM] | frequency of mDC producing IL-12p40 (human PBMCs; 2 μM) | frequency of mDC and classical monocytes expressing TGFβ (LAP) (human PBMCs; compound alone, 2 μM) | frequency of mDC and classical monocytes expressing TGFβ (LAP) (human PBMCs; in combination with CRX-601, 2 μM) | frequency of classical monocytes producing IL-12p40 (human PBMCs; 2 μM)
1 | CCCCc1nc2c(N)nc3ccccc3c2n1CCO [UM-3001] | 530 | 480 | approximately 20% | low frequencies | low frequencies | 
2 | CCCCCCCCCCCCCCCC(=O)OC[C@H](COCCOCCOCCOP(=O)(O)OCCn1c(CCCC)nc2c(N)nc3ccccc3c21)OC(=O)CCCCCCCCCCCCCCC [UM-3003] | 52500 | 12600 | Lower frequencies |  |  | Lower frequencies
3 | CCCCCCCCCCCCCCCC(=O)OC[C@H](COCCOCCOCCOCCOCCOCCOP(=O)(O)OCCn1c(CCCC)nc2c(N)nc3ccccc3c21)OC(=O)CCCCCCCCCCCCCCC [UM-3004] | 24600 | 860 | Lower frequencies |  |  | Lower frequencies
4 | CCCCCCCC/C=C\CCCCCCCC(=O)OC[C@H](COP(=O)(O)OCCc1ccc2c(c1)nc(N)c1nc(CCCC)n(CCO)c12)OC(=O)CCCCCCC/C=C\CCCCCCCC [UM-3005] | 270 | 1140 | approximately 20% |  |  | approximately 20%
